Reference: US10183944B2 (Asana Biosciences, LLC, priority 2011, dated 2019)
Values joined by “and” are separate entries in the source; they are usually repeats but may differ in a detail not shown here. Equal values may be shown once. Marks after values point to notes of the source that are not given here.

Tested on: Arthus reaction in female c57BL/6 mice
Experiment: In vivo acute study: Arthus reaction model in mice
Design: species or system mouse
Conditions: for OD % Inhibition: dye extravasation (OD 610 nm)
From the text: Arthus reaction is a type of local type III hypersensitivity reaction. Type III hypersensitivity reactions are immune complex-mediated, and involve the deposition of antigen/antibody complexes mainly in the vascular walls, serosa (pleura, pericardium, synovium), and glomeruli. This involves formation of antigen/antibody complexes after the intradermal injection of an antibody. If the animal was previously injected with antigen and dye (has circulating antigen), an Arthus reaction occurs. This manifests as local vasculitis due to deposition of immune complexes in dermal blood vessels. Activation of complement and recruitment of PMNs ensue, resulting in an inflammatory response and extravasation of dye to the skin. Compounds which can inhibit this complex process can have therapeutic implications in wide range of inflammatory and auto-immune disorders. See, Pine, “Inflammation and bone erosion are suppressed in models of rheumatoid arthritis following treatment with a novel Syk inhibitor”; Clin. Immunol. (2007) 124 (3): 244-57; and Sylvia, “R-406, an Orally Available Spleen Tyrosine Kinase Inhibitor Blocks Fc Receptor Signaling and Reduces Immune Complex-Mediated Inflammation”, JPET 319:998-1008, 2006, which are herein incorporated by reference.
Female c57BL/6 mice were given an antigen injection in which the antigen was 0.1% Ovalbumin (OVA) in PBS containing 1% Evans blue (EB) at the concentration of 10 mL/kg intravenously under Isoflurane anesthesia [2.5 mg/mouse with a body weight of 25 g]. Ten minutes after antigen injection; the animals were injected with the rabbit anti-OVA IgG (50 μg in 25 μL/site) (Polysciences; Cat #23744) intradermally on the shaved back at two top locations. Animals were also injected with phosphate buffered saline (PBS, 25 μL) intradermally on the back at two bottom and opposite locations to serve as negative control. The mice were euthanized by cervical dislocation 4 hours after antigen (Ovalbumin) challenge. Skin tissue was assessed for edema by tracing the edema area on to a transparent plastic sheet. Punch biopsies of the injection sites were collected.
Edema area was measured manually by scale. Two diameters were taken and averaged for each animal.
Punch biopsies of the injection sites (using 10 mm skin biopsy punches) were incubated in 2 mL of sodium sulfate: acetone mixture (0.6+1.4 mL) at room temperature for 16-18 hours. The supernatants were removed from digested tissues by centrifuging at 4000 rpm for 10 minutes, filtered and were read spectrophotometrically at 610 nm.
The percent inhibition of dye leakage was calculated with respect to control by the formula: […]
The percent inhibition of edema area was calculated with respect to control by the formula: […]
Means of different groups were compared with control using One way ANOVA followed by Dunnett's test. Significance was represented as follows.

Row | Compound | Edema area % Inhibition (dose 3 mg/Kg) | Edema area % Inhibition (dose 10 mg/Kg, hydrochloride) | Edema area % Inhibition (dose 30 mg/Kg, hydrochloride) | OD % Inhibition (dose 3 mg/Kg) | OD % Inhibition (dose 30 mg/Kg, hydrochloride) | Edema area % Inhibition (dose 10 mg/Kg) | Edema area % Inhibition (dose 30 mg/Kg) | OD % Inhibition (dose 10 mg/Kg) [%] | OD % Inhibition (dose 30 mg/Kg)
1 | Cl.O=c1[nH]ncc2nc(-c3ccccc3)nc(Nc3ccc(CN4CCNCC4)cc3)c12 [Example 7, 2-phenyl-4-(4-(piperazin-1-ylmethyl)phenylamino)pyrimido[4,5-d]pyridazin-5(6H)-one hydrochloride] | 41*** % | 45*** % and 53*** % and 30% | 68*** % and 74*** % | 40*** % | 67*** % and 65*** % | – | – | – | –
2 | O=C(O)C1CCN(c2ccc(Nc3nc(-c4ccccc4)nc4cn[nH]c(=O)c34)cc2)CC1 [Example 13, 1-(4-(5-oxo-2-phenyl-5,6-dihydropyrimido[4,5-d]pyridazin-4-ylamino)phenyl)piperidine-4-carboxylic acid] | – | – | – | – | – | 53*** % | 40** % | 27 | 30%
3 | O=C(O)C1CC12CCN(c1ccc(Nc3nc(-c4ccccc4)nc4cn[nH]c(=O)c34)cc1)CC2 (stereo not shown) [Example 19, 6-(4-(5-oxo-2-phenyl-5,6-dihydropyrimido[4,5-d]pyridazin-4-ylamino)phenyl)-6-azaspiro[2.5]octane-1-carboxylic acid] | 48*** % | – | – | 53*** % | – | – | 60*** % | – | 60*** %
